# Experimental data published in US9439436B2, “Use of aryl carbamates in agriculture and other plant-related areas” (North Carolina State University, priority 2010, dated 2016).
# Legend:
# [1] = tested on: bacteria; details: literature statement; cited from earlier work
# [2] = tested on: R. salexigens; details: reported by Yamada et al.; cited from earlier work
# [3] = tested on: S. epidermidis; test: biofilm inhibition, crystal violet reporter assay; format: cell-based
# [4] = tested on: R. salexigens; test: biofilm inhibition, crystal violet reporter assay; format: cell-based, Rhodospirillum salexigens
# [5] = tested on: vancomycin-resistant Enterococcus faecium (VRE); test: biofilm inhibition, crystal violet reporter assay; format: cell-based
# [6] = tested on: multi-drug resistant Acinetobacter baumannii (MDRAB); test: biofilm inhibition, crystal violet reporter assay; format: cell-based
# [7] = tested on: E. coli; test: biofilm inhibition, crystal violet reporter assay; format: cell-based
# [8] = tested on: methicillin-resistant S. aureus (MRSA); test: biofilm inhibition, crystal violet reporter assay; format: cell-based
# [9] = tested on: S. aureus strains 29213, 29740, and 25923; test: testing of the library on S. aureus strains; format: cell-based; details: refers to Tables 2 and 3, not given
Structure (SMILES),melting point [°C],further results
CC(C)CCC[C@@H](C)C1CCC2[C@@H]3CC=C4C[C@@H](OC(=O)NCCc5ccc(Br)cc5)CC[C@]4(C)[C@H]3CC[C@]12C (some centres unmarked),142 to 145,–
CC(C)CCC[C@@H](C)C1CCC2[C@@H]3CC=C4C[C@@H](OC(=O)NCCc5ccccc5)CC[C@]4(C)[C@H]3CC[C@]12C (some centres unmarked),74 to 76,–
CC(C)CCC[C@@H](C)C1CCC2[C@@H]3CC=C4C[C@@H](OC(=O)NC5Cc6ccccc6C5)CC[C@]4(C)[C@H]3CC[C@]12C (some centres unmarked),114 to 116,–
CC(C)CCC[C@@H](C)C1CCC2[C@@H]3CC=C4C[C@@H](OC(=O)NCCCc5ccccc5)CC[C@]4(C)[C@H]3CC[C@]12C (some centres unmarked),87 to 89,–
CC(C)CCC[C@@H](C)C1CCC2[C@@H]3CC=C4C[C@@H](OC(=O)N5CCc6ccccc65)CC[C@]4(C)[C@H]3CC[C@]12C (some centres unmarked),157 to 159,–
CC(C)CCC[C@@H](C)C1CCC2[C@@H]3CC=C4C[C@@H](OC(=O)N5CCCc6ccccc65)CC[C@]4(C)[C@H]3CC[C@]12C (some centres unmarked),107 to 110,–
"CC1CCC(C(C)C)C(O)C1 (single isomer, unassigned; (-)) [(−)-menthol]",–,antimicrobial activity [1]: known to possess antimicrobial activity
"CC(C)[C@@H]1CC[C@@H](C)C[C@H]1OC(=O)NCCc1ccccc1 [Compound 2a, (1R, 2 S, 5R)-2-isopropyl-5-methylcyclohexyl phenethylcarbamate]",84 to 86,–
"CCOC(=O)NCCc1ccccc1 [Compound 2d, ethyl N-(2-phenethyl) carbamate]",–,"antibiofilm activity against Rhodospirillum salexigens [2]: moderate antibiofilm activity; % Inhibition (200 μM 2d) of biofilm formation [3]: 63.1%; % Inhibition (200 μM 2d) of biofilm formation [4]: 59.7%; % Inhibition (200 μM 2d) of biofilm formation [5]: 80.2%; % Inhibition (200 μM 2d) of biofilm formation [6]: 52.0%; % Inhibition (200 μM 2d) of biofilm formation [7]: 40.8%; % Inhibition (200 μM 2d) of biofilm formation ([8]; 200 μM, MRSA): 68.1%"
"CC(C)[C@@H]1CC[C@@H](C)C[C@H]1OC(=O)NC1Cc2ccccc2C1 [Compound 3a, (1R, 2 S, 5R)-2-isopropyl-5-methylcyclohexyl 2,3-dihydro-1H-inden-2-ylcarbamate]",167 to 170,–
"CCSC(=O)NC1Cc2ccccc2C1 [Compound 3b, S-ethyl 2,3-dihydro-1H-inden-2-ylcarbamothioate]",107 to 110,–
"O=C(NC1Cc2ccccc2C1)OCc1ccccc1 [Compound 3c, benzyl 2,3-dihydro-1H-inden-2-ylcarbamate]",159 to 161,–
"CC(C)(C)OC(=O)NC1Cc2ccccc2C1 [Compound 3e, tert-butyl 2,3-dihydro-1H-inden-2-ylcarbamate]",51 to 53,–
"CCNC(=S)NC1Cc2ccccc2C1 [Compound 3h, 1-(2,3-dihydro-1H-inden-2-yl)-3-ethylthiourea]",87 to 91,–
"CC(C)[C@@H]1CC[C@@H](C)C[C@H]1OC(=O)NCCCc1ccccc1 [Compound 4a, (1R, 2 S, 5R)-2-isopropyl-5-methylcyclohexyl 3-phenylpropylcarbamate]",75 to 78,–
"CCNC(=O)N1CCc2ccccc21 [Compound 6g, N-ethylindoline-1-carboxamide]",111 to 113,–
"CCNC(=S)N1CCc2ccccc21 [Compound 6h, N-ethylindoline-1-carbothioamide]",88 to 91,–
"CCNC(=S)N1CCCc2ccccc21 [Compound 7h, N-ethyl-3,4-dihydroquinoline-1(2H)-carbothioamide]",55 to 57,–
"Nc1ccc(CCNC(=O)OCc2ccccc2)cc1 [Compound 8c, benzyl 4-aminophenethylcarbamate]",70 to 73,–
"CC(C)[C@@H]1CC[C@@H](C)C[C@H]1OC(=O)NCCc1ccccn1 [Compound 9a, (1R, 2 S, 5R)-2-isopropyl-5-methylcyclohexyl 2-(pyridin-2-yl)ethylcarbamate]",59 to 63,"IC50 values against MRSA (in words) ([8]; refers to Tables 2 and 3, not given): lowest IC50 values; activity against 29213, 29740, and 25923 (in words) [9]: worked well"
"CC(C)[C@H]1CC[C@H](C)C[C@@H]1OC(=O)NCCc1ccccn1 [Compound 9k, (1 S,2R, 5 S)-2-isopropyl-5-methylcyclohexyl 2-(pyridin-2-yl)ethylcarbamate]",57 to 59,–
"CCSC(=O)NCCc1c[nH]c2ccccc12 [Compound 10b, S-ethyl 2-(1H-indol-3-yl)ethylcarbamothioate]",68 to 70,–
"CC(C)[C@@H]1CC[C@@H](C)C[C@H]1OC(=O)NCCc1ccc(Br)cc1 [Compound 11a, (1R, 2 S, 5R)-2-isopropyl-5-methylcyclohexyl 4-bromophenethylcarbamate]",104 to 106,–
"CCOC(=O)NCCc1ccc(Br)cc1 [Compound 11d, ethyl 4-bromophenethylcarbamate]",63 to 65,–
"COc1ccc(CCNC(=O)O[C@@H]2C[C@H](C)CC[C@H]2C(C)C)cc1 [Compound 12a, (1R, 2 S, 5R)-2-isopropyl-5-methylcyclohexyl 4-methoxyphenethylcarbamate]",95 to 98,–
Cc1ccc(C(C)C)cc1O [carvacrol],–,antimicrobial activity [1]: known to possess antimicrobial activity
Cc1ccc(C(C)C)c(O)c1 [thymol],–,antimicrobial activity [1]: known to possess antimicrobial activity

# Further lines, with some results ahead:
melting point [°C],Structure (SMILES),further results
135 to 139,CC(C)CCC[C@@H](C)C1CCC2[C@@H]3CC=C4C[C@@H](OC(=O)NCCn5nccn5)CC[C@]4(C)[C@H]3CC[C@]12C (some centres unmarked),–
75 to 77,"CCNC(=O)NCCc1ccccc1 [Compound 2g, 1-ethyl-3-phenethylurea]",–
56 to 58,"CCNC(=S)NCCc1ccccc1 [Compound 2h, 1-ethyl-3-phenethylthiourea]",–
117,"CCNC(=O)NC1Cc2ccccc2C1 [Compound 3g, 1-(2,3-dihydro-1H-inden-2-yl)-3-ethylurea]",–
48,"CCNC(=O)NCCCc1ccccc1 [Compound 4g, 1-ethyl-3-(3-phenylpropyl)urea]",–
51 to 53,"CCNC(=S)NCCCc1ccccc1 [Compound 4h, 1-ethyl-3-(3-phenylpropyl)thiourea]",–
64 to 66,"CC(C)(C)OC(=O)NCCn1nccn1 [Compound 5e, tert-butyl 2-(2H-1,2,3-triazol-2-yl)ethylcarbamate]",–
109,"CCNC(=O)NCCn1nccn1 [Compound 5g, 1-(2-(2H-1,2,3-triazol-2-yl)ethyl)-3-ethylurea]",–
91 to 93,"CCNC(=S)NCCn1nccn1 [Compound 5h, 1-(2-(2H-1,2,3-triazol-2-yl)ethyl)-3-ethylthiourea]",–
101 to 103,"CCNC(=O)NCCc1ccc(N)cc1 [Compound 8g, 1-(4-aminophenethyl)-3-ethylurea]",–
109 to 112,"CCNC(=O)NCCc1c[nH]c2ccccc12 [Compound 10g, 1-(2-(1H-indol-3-yl)ethyl)-3-ethylurea]",–
137 to 139,"CCNC(=O)NCCc1ccc(Br)cc1 [Compound 11g, 1-(4-bromophenethyl)-3-ethylurea]",–
